Results as given in patent US4219657A, “Dibenzothiophenes” (Hoffmann-La Roche Inc., priority 1977, dated 1980).

Key:
[1] = system: mice; assay: analgesic activity, reaction time of mice on a hot plate; type: in vivo; details: Mus musculus; male mice; oral; hot plate 55±0.5° C.; combined reaction time average at 30, 60 and 90 minutes
Protocol: The method determines the reaction time of mice dropped onto a hot plate maintained at 55±0.5° C. Six groups of male mice (5 mice/group) weighing between 20-30 grams are utilized. The initial reaction time of these mice is determined once, and the reaction time of each group is then averaged. The mice are then administered the vehicle and/or the compound to be tested by the oral, intraperitoneal or subcutaneous route. The average reaction time of each group is determined again at 30, 60 and 90 minutes after compound administration and is compared to controls. Reaction time is recorded as percent changes from control. All groups are averaged before and after treatment. A combined reaction time average (recorded as percent change of reaction time threshhold from controls) for all three periods is plotted against does on graph paper, and a curve is drawn. The ED50 is read from this curve.

[2] = system: Albino rats of Hart Strain; assay: anti-inflammatory activity, volume of edema after Mycobacterium butyricum adjuvant injected into the right hind foot; type: in vivo; details: Rattus norvegicus, po, dosage of 0.03 gm. p.o., treated daily for 5 consecutive days, edema 96 hours after adjuvant, read-out: ED30 (dose required to produce a 30% reduction in edema)
Protocol: The test animals are given 10 mls. of vehicle^1, which contains the test compound per kg. of body weight. The animals are treated daily for 5 consecutive days. Three hours after the first treatment, 0.05 ml. of an 0.5% suspension of heat killed dessiccated Mycobacterium butyricum in U.S.P. olive oil, which has been steam sterilized for 30 minutes, is injected into the right hind foot of each rat. The paw volume is measured immediately after the injection of the adjuvant and again 96 hours later. The difference is recorded as volume of edema. The paw volume is measured by immersion of the paw into a column of mercury to an ink mark exactly at the level of the lateral malleolus. Percent inhibition is calculated by dividing the average control edema minus the average treatment edema by the average control edema times 100. The percent inhibition is plotted against dose on semi-logarithmic probability paper and the dose required to produce a 30% reduction in edema is estimated therefrom and is expressed as ED30.
^1 Hilgar, A. G. and Hummel, D. J.: Endocrine Bioassay Data. No. 1, p. 15, August 1964 (Cancer Chemotherapy National Service Center, N.I.H.)

`O=C(O)Cc1ccc2c(c1)sc1ccc(Cl)cc12` [8-chloro-dibenzothiophene-3-acetic acid] showed an ED50 [1] of 120 mg/kg and an ED30 [2] of 1.8 mg/kg/day.
